Results: publication PMC8400343, “Synthesis and Evaluation of the Antidepressant-like Properties of HBK-10, a Novel 2-Methoxyphenylpiperazine Derivative Targeting the 5-HT1A and D2 Receptors” (Pharmaceuticals, 2021)
Where two headings read alike, the source gives them in different places.

What was measured:
[1] = target: T1, serotonin transporter (SERT) (Rattus norvegicus, UniProt P31652); assay: Radioligand binding, [3H]-citalopram, rat cortex tissue; details: mean ± SEM, read-out: Serotonergic pKi SERT (converted)
T1 construct: from tissue; host or cells: rat cortex
Procedure: Radioligand binding was performed on membranes from CHO-K1 cells stably transfected with the human 5-HT1A, 5-HT2A, 5-HT6, or 5-HT7 receptors. […] Binding experiments were conducted in 96-well microplates, and the reaction mix included the solution of the test compound, radioligand, and diluted membranes or the tissue suspension.
The reaction was terminated by rapid filtration through GF/B or GF/C filter mate presoaked with 0.3% polyethyleneimine for 30 min. Ten rapid washes with 200 µl 50 mM Tris buffer (4 °C, pH 7.4) were performed using an automated harvester system Harvester-96 MACH III FM (Tomtec). […] Radioactivity was counted in the MicroBeta2 scintillation counter (PerkinElmer) at approximately 30% efficiency. […] A single assay was performed with each compound concentrations in duplicate, and the whole assay was repeated in a three independent experiments.

[2] = test system: corticosterone-treated mice; assay: Locomotor activity in corticosterone-treated mice; assay type: in vivo, mouse; details: 4 min
Procedure: The locomotor activity of mice was measured as previously described. We used photoresistor actometers (Ugo Basile, Italy) connected to a counter for the recording of light-beam interruptions. Mice were placed individually in cages for 30 min, and the number of crossings of the light beams was recorded as the locomotor activity for 4 min.
(§1) Mice were injected with corticosterone (sc, 20 mg/kg) at random times during the light phase for 21 days. The dose and route of administration of corticosterone were based on our previous study. Control mice received saline containing 0.1% dimethyl sulfoxide (DMSO) and 0.1% Tween (sc). For the next 21 days, 30 min before the corticosterone injection, mice were injected with saline, HBK-10 (0.625 or 1.25 mg/kg), or fluoxetine (15 mg/kg) (ip). Twenty-four hours after the last injection, animals were tested in the forced swim test and locomotor activity test (Figure 8).

[3] = test system: corticosterone-treated mice; assay: Forced swim test in corticosterone-induced mouse model of depression; assay type: in vivo; details: for Decrease of immobility in the forced swim test in corticosterone-treated mice: chronic (3 weeks)
Procedure: The experiment was performed on mice according to the method described by Porsolt et al. and as previously described. Mice were placed individually in glass cylinders (height 25 cm, diameter 10 cm) filled with water at 24 ± 1 °C to a depth of 10 cm and left there for 6 min. Following a 2 min habituation period, total time spent immobile was recorded during the next 4 min. The animal was considered as immobile when it remained floating passively in the water, making only small movements to keep its head above the water. The experiments were video-recorded and scored using elevenmaze.com software by a trained observer blind to the treatments.
as §1

[4] = MTT viability assay in HepG2 cells; assay type: cell-based; details: human, % of control, read-out: Viability (% ± SEM)
Procedure: To investigate the lack of hepatotoxicity of HBK-10 at 25 µM concentration, we used HepG2 cells. Viability was measured using 3-(4,5-dimethyl-thiazol-2-yl)-2,5-diphenyltetrazolium (MTT) assay. We chose 25 µM since such concentration was used in metabolic stability studies.
To investigate the preliminary hepatic safety of HBK-10 at the concentration used in metabolic stability study, a human hepatocellular carcinoma cell line—HepG2 (HB-8065TM, ATCC, Manassas, VA, USA) was used in the study. HepG2 cells were cultured in standard conditions (37 °C, 5% CO2, 95% humidity) in appropriate culture medium (according to manufacturer procedure), supplemented with 10% fetal bovine serum (FBS, Gibco, Thermo Fisher Scientific, Waltham, MA, USA) and antibiotics (1% streptomycin/penicillin mixture; Sigma-Aldrich, Steinheim, Germany). Cells were seeded in 96-well plates at density of 1 × 10^4 per well. After 24 h cells were treated with two doses of HBK-10 (5 and 25 µM, solvent—PBS) and incubated for additional 24 h. Following the incubation cells viability was measured with MTT assay. For this purpose, MTT reagent (3-(4,5-dimethylthiazol-2-yl)-2,5-diphenyltetrazolium bromide) (Sigma Aldrich, Steinheim, Germany) was added to each well at the concentration 0.5 mg/mL. After 4 h incubation at 37 °C, the medium was aspirated, and formazan crystals produced in the cells were dissolved in DMSO. Then the absorbance of solution was determined at 570 nm (A570) on plate reader (Spectra iD3 Max, Molecular Devices; San Jose, CA, USA). Viability (% of control) was determined by dividing A570 of experimental wells by of A570 of control wells × 100%.

[5] = target: T2, human serotonin 5-HT1A receptor (Homo sapiens, UniProt P08908); assay: Functional assay, inhibition of cAMP production, CHO-K1 cells; assay type: cell-based
T2 construct: expressed in transfected cells; host or cells: CHO-K1 (cryopreserved, whole cells)
T2 sequence (P08908 1-422): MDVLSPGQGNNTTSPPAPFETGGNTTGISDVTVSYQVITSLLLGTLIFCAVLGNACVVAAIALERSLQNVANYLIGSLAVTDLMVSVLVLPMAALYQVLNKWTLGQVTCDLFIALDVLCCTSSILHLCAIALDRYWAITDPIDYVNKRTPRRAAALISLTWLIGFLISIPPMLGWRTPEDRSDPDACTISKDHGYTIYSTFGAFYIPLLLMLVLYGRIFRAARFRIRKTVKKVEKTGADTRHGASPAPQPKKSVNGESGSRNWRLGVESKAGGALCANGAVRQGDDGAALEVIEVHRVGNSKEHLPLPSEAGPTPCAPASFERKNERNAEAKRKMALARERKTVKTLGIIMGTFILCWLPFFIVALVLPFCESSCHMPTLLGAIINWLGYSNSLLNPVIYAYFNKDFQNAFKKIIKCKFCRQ
Procedure: Tested and reference compounds were dissolved in dimethyl sulfoxide (DMSO) at a concentration of 10 mM. Serial dilutions were prepared in 96-well microplate in assay buffer, and 8 to 10 concentrations were tested. […] Thawed cells were resuspended in stimulation buffer (HBSS, 5 mM HEPES, […], and 0.1% BSA at pH 7.4) at 2 × 10^5 cells/mL. The 10 µL of cell suspension was added to tested compounds with 10 µM forskolin. Samples were loaded onto a white opaque half area 96-well microplate. […] The agonist and antagonist were added simultaneously. Cell stimulation was performed for 40 min at room temperature. After incubation, cAMP measurements were performed with homogeneous TR-FRET immunoassay using the LANCE Ultra cAMP kit (PerkinElmer, Waltham, MA, USA). Ten microliters of EucAMP Tracer Working Solution and 10 µl of ULight-anti-cAMP Tracer Working Solution were added, mixed, and incubated for 1 h. The TR-FRET signal was read on an EnVision microplate reader (PerkinElmer, USA). IC50 and EC50 were determined by nonlinear regression analysis using GraphPad Prism 6.0 software.

T1 sequence (P31652 whole entry): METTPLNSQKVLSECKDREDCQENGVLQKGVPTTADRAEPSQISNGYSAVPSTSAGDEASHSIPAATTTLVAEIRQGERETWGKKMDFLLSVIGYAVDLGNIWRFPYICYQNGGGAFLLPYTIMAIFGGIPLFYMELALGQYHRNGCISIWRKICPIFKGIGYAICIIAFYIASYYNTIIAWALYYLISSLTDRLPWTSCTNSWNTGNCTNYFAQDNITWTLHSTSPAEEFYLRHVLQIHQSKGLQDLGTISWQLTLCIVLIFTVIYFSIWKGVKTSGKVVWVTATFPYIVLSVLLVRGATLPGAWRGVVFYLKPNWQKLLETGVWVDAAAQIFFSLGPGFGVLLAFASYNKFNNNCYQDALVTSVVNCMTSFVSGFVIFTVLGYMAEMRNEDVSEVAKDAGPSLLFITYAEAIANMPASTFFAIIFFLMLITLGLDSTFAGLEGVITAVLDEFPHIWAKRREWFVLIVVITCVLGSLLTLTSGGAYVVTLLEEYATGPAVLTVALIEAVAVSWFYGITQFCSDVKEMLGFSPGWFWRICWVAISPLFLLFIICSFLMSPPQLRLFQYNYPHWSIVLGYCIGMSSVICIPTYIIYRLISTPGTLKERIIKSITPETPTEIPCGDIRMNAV

CCC(CN1CCN(c2ccccc2OC)CC1)NCCCOc1c(C)cccc1C.Cl.Cl (stereo not drawn) [HBK-10, N-(3-(2,6-dimethylphenoxy)propyl)-1-(4-(2-methoxyphenyl)piperazin-1-yl)butan-2-amine dihydrochloride]
Ki [1]: 3720 nM | Number of Crossings ± SEM ([2]; 0.625 mg/kg ip chronic): 431.1 ± 47.92 | Number of Crossings ± SEM ([2]; 1.25 mg/kg ip chronic): 453.9 ± 41.27 | Decrease of immobility in the forced swim test in corticosterone-treated mice ([3]; 0.625 mg/kg ip): 30.9% | Decrease of immobility in the forced swim test in corticosterone-treated mice ([3]; 1.25 mg/kg ip): 39.5% | Active dose in corticosterone model, fold lower than fluoxetine ([3]; chronic administration): 24 fold | Active dose in corticosterone model, fold lower than HBK-15 ([3]; comparator data ref 21): 2 fold | viability at 24 h, 1 µM ([4]; HBK-10 1 μM): 102 ± 3.3% | viability at 24 h, 5 µM ([4]; HBK-10 5 μM): 109 ± 0.9% | viability at 24 h, 25 µM ([4]; HBK-10 25 μM): 99 ± 2.4% | Kb, fold lower compared with NAN-190 ([5]; 5-HT1A, antagonist mode): 10 fold | Kb ([5]; 5-HT1A, antagonist mode, Cheng–Prusoff equation): 64 nM | Emax ([5]; CHO-K1, read-out: Emax %, agonist mode): 2% | Emax ([5]; CHO-K1, read-out: Emax %, antagonist mode): 0% | IC50 ([5]; read-out: pIC50 ± SEM, antagonist mode (converted)): 191 nM
